Assay results published in US4141991A, “Ferrocene derivatives” (Hoechst Aktiengesellschaft, priority 1976, dated 1979).

Assays:
[1] = test system: liver ferritin; test: Analysis of the ferritin from rat livers (quantitative determination of ferritin protein and its iron content); format: in vivo; settings: for Ratio of iron to protein: rat liver ferritin, two successive daily doses corresponding to 52.5 mg Fe/kg; for Ratio of iron to protein / Ferritin-iron / Ferritin-protein: average values from 6 animals; for Ferritin-iron / Ferritin-protein: two successive daily doses corresponding to 52.5 mg Fe/kg (table; text 52.2), 24 hours after 2nd administration
Experimental: 24 hours after the 2nd administration the animals were killed. […] For this, ferritin is isolated from the liver by thermal denaturation, ammonium sulfate fractionation and gel filtration, and the protein is determined by amino acid analysis and the iron content by atom absorption.

[2] = test system: liver ferritin; test: Histological comparison test of liver ferritin (Berlin-blue reaction); format: in vivo; settings: 6 male rats and 6 male mice; 2 doses corresponding to 52.2 mg Fe/kg; 24 hours after 2nd administration
Experimental: After oral administration, sideropenia resulting from by-passing the normal regulating mechanism in the intestine for ionic iron, is quickly compensated. Thus, the results of an iron-deficient diet for rats and mice, such as reduced body weight, decrease of hemoglobin, of the hematocrit, of the serum iron and of the number of erythrocytes, is fully compensated by the administration once of a dose of one of the compounds according to the invention corresponding to 2 mg of iron per animal. The compounds according to the invention are resorbed well orally, the excretion of unchanged substance in urine usually being less than 1%. The compounds are distinguished by a distinct nontoxicity, the LD50 of 4-ferrocenoyl-cyclohexene thus amounting to 2000 mg/kg in mice and 3,000 mg/kg in rats. As can be shown by biochemical determination of the ferritin protein and its degree of iron saturation, the compounds are completely metabolised in the liver, that is, the iron is released and incorporated in the storage form that can be used to form hemoglobin, that is in liver ferritin, and in the case of an excess of added substance, in ferritin and in hemosiderin. These discoveries are supported by histological comparison tests, in which the increase of liver ferritin is recognisable in a Berlin-blue reaction in the form of a uniform blue shading of the cytoplasma of the liver cells, and any hemosiderin that may have formed is recognisable in the form of fine blue grains.
The compounds were administered to 6 male rats and 6 male mice on two successive days in individual doses corresponding to an iron content of 52.2 mg Fe per kg of animal. 24 hours after the 2nd administration the animals were killed. […] The quantitative determination of the ferritin protein and its iron content (table) confirm these findings. For this, ferritin is isolated from the liver by thermal denaturation, ammonium sulfate fractionation and gel filtration, and the protein is determined by amino acid analysis and the iron content by atom absorption.

[3] = test system: ability to utilize the iron; settings: among 2a-d, according to details in the literature; cited from earlier work
[4] = test system: mice; test: Acute toxicity (LD50) in mice
[5] = test system: rats; test: Acute toxicity (LD50) in rats

Row | Molecule | Ratio of iron to protein [1] | Ferritin-iron ([1]; rat liver) | Ferritin-protein ([1]; rat liver) | histological increase of the liver ferritin [2] | ability to utilize the iron [3] | hemosiderin particles, histologically [2] | ferritin protein and its iron content in comparison with the known compounds 2a-d ([1]; rat liver, after administration, from the table) | LD50 [4] | LD50 [5]
1 | 1,1'-di-(3,5,5-trimethyl-hexanoyl)-ferrocene [Example 2b] | 0.26 | 148 μg/g tissue | 567 μg/g tissue | – | – | – | – | – | –
2 | 1,1'-di-hexahydrobenzoyl ferrocene [Example 2c] | 0.42 | 94 μg/g tissue | 224 μg/g tissue | do not cause any histologically recognisable increase of the liver ferritin | – | – | – | – | –
3 | 1,1'-di-neopentyl ferrocene [Example 2d] | 0.38 | 61 μg/g tissue | 130 μg/g tissue | do not cause any histologically recognisable increase of the liver ferritin | the best, especially regarding its ability to utilize the iron | – | – | – | –
4 | O=C([c-]1cccc1)C1CC=CCC1.[Fe+2].c1cc[cH-]c1 (centres unmarked) [Example 1, 4-Ferrocenoyl-cyclohexene] | 1.19 | 1133 μg/g tissue | 950 μg/g tissue | in comparison with 2a and 2b exhibits a substantially greater increase of the liver ferritin | – | individual hemosiderin particles are observed | clearly increased more markedly | 2000 mg/kg | 3,000 mg/kg
5 | O=C([c-]1cccc1)C1CCCCC1.[Fe+2].c1cc[cH-]c1 [Example 2a, hexahydrobenzoyl ferrocene] | 0.43 | 209 μg/g tissue | 475 μg/g tissue | – | – | – | – | – | –
